Values quoted from earlier work as cited in publication PMC6156206 (Molecular Imaging, 2018).

How the values were obtained:
[1] = phase 1/1b safety profile analysis
[2] = tested on: BRAF^V600E-mutant melanoma xenografts; conditions: oral, 30-100 mg/kg, twice daily, without any adverse effects

SMILES	Tolerable dose in patients [1]	Antitumor effect in xenografts [2]	Substrate for the drug efflux transporter system P-gp/BCRP (P-gp/BCRP)
COc1cc2ncnc(Oc3cccc(NC(=O)Nc4cc(C(C)(C)C(F)(F)F)on4)c3)c2cc1OC.Cl [CEP-32496, 1-(3-(6,7-dimethoxyquinazolin-4-yloxy)phenyl)-3-(5-(1,1,1-trifluoro-2-methylpropan-2-yl)isoxazol-3-yl)urea hydrochloride]	up to 350 mg/d	tumor stasis and regression	–
CNC(=O)c1cc(Oc2ccc(NC(=O)Nc3ccc(Cl)c(C(F)(F)F)c3)cc2)ccn1 [sorafenib]	–	–	substrate for the drug efflux transporter system P-gp/BCRP
